Results taken from PMC7335108, “Butyrate producing colonic Clostridiales metabolise human milk oligosaccharides and cross feed on mucin via conserved pathways” (Nature Communications, 2020).
Several values for one entry are separate records, joined by “and”; a condition that tells them apart may be missing. Equal entries are not always repeated.

How the values were obtained:
RhLNBBP [1] = target: T1, RhLNBBP (Roseburia hominis, UniProt G2T0U7); assay: isothermal titration calorimetry; format: binding; settings: 10 mM sodium phosphate, pH 6.5, 25 °C
T1 construct: gene RHOM_04095; signal peptide removed, cleavable His6 tag, pETM11, expressed in E. coli

RhGLnbp112 = target: T2, RhGLnbp112 (Roseburia hominis, UniProt G2T0V2); assay: phosphorolysis, HPAEC-PAD of Gal1P; specific activity only; format: biochemical; settings: 50 mM sodium phosphate, 150 mM NaCl, 0.005% Triton X-100, pH 6.5, 37 °C, 2 mM substrate
T2 construct: gene RHOM_04120; cleavable His6 tag, pETM11, E. coli

RiLe^a/bBP [2] = target: T3, RiLe^a/bBP (Roseburia inulinivorans, UniProt A0ACG1Y794); parameters: surface plasmon resonance, steady state, one-site fit; settings: binder; read-out: KD (µM) SPR
T3 construct: gene LK408_15410; signal peptide removed, cleavable His6 tag, pETM11, expressed in E. coli; amine-coupled to CM5 chip
T3 sequence (A0ACG1Y794 20-470): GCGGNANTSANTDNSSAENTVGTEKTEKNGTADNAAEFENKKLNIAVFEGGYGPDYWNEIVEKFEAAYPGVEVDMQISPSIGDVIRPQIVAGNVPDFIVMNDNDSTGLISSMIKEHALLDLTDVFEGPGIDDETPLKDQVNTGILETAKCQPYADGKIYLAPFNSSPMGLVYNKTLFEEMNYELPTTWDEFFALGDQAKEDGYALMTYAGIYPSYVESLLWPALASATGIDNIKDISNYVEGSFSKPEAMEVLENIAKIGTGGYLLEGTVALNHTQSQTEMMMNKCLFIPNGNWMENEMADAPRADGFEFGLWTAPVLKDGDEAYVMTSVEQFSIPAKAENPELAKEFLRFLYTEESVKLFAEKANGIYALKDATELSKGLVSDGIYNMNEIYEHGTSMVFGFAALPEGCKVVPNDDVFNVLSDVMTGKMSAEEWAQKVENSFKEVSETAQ
From the text: Both SBPs recognized distinct HMOs and ligands from host-glycans (Fig. 4, Supplementary Tables 2 and 3, Supplementary Fig. 7). […] The loss of the fucosyl unit at the terminal reducing GlcNAc reduced the affinity of RiLe^a/bBP about 5-fold for blood group H antigen triose type I (H triose type I) relative to Le^b tetraose. The specificity of RiLe^a/bBP is highlighted by the lack of affinity for lacto-N-neotetroase (LNnT), blood group A antigen triose (A triose), lactose and 2′-fucosyllactose (2′-FL). […] An equimolar mixture of Le^b, Le^a and H-triose type I oligomers promoted the growth of R. inulinivorans to a similar final OD600 as glucose (Fig. 1b, c and Fig. 4a). The uptake profiles of these ligands reflected the preference of RiLe^a/bBP, consistent with uptake by the associated transporter (Fig. 4). This was also in accord with the utilization of larger fucosylated HMO structures observed during growth on purified HMOs from mother’s milk (Supplementary Fig. 2a–c).

RiGLnbp112 = target: T4, RiGLnbp112 (Roseburia inulinivorans, UniProt A0ACG1Y7L8); assay: phosphorolysis, HPAEC-PAD of Gal1P; specific activity only; format: biochemical; settings: 50 mM sodium phosphate, 150 mM NaCl, 0.005% Triton X-100, pH 6.5, 37 °C, 2 mM substrate
T4 construct: gene gnpA; cleavable His6 tag, pETM11, E. coli

RhLNBBP [3] = target: T5, RhLNBBP (Roseburia hominis, UniProt G2T0U7); parameters: isothermal titration calorimetry, single-site binding model; settings: binder; read-out: KD (μM) ITC
T5 construct: gene RHOM_04095; signal peptide removed, cleavable His6 tag, pETM11, expressed in E. coli
T5 sequence (G2T0U7 21-454): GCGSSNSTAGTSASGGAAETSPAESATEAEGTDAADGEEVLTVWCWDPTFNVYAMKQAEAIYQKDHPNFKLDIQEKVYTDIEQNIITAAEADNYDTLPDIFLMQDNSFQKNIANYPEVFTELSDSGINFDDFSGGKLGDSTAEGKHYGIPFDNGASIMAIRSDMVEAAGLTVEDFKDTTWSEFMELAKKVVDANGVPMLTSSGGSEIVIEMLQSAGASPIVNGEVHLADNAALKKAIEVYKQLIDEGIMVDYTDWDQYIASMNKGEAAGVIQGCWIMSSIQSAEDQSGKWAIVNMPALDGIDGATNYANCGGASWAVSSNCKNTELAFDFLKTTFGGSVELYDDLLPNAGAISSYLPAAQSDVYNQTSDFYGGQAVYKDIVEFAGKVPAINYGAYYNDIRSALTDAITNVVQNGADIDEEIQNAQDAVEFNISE
Protocol: Binding of LNT, LNB, GNB, LNnT, lactose and 2′FL to RhLNBBP was measured using a Microcal ITC200 calorimeter (GE Healthcare). Titrations were performed in duplicates at 25 °C with RhLNBBP (0.1 mM) in the sample cell and 1.5 mM ligand in 10 mM sodium phosphate buffer, pH 6.5 in the syringe. A first injection of 0.4 µL was followed by 19 injections of 2 µL ligand each, separated by 180 s. Heat of dilution was determined from buffer titrations and corrected data were analysed using MicroCal Origin software v7.0. To determine binding thermodynamics a non-linear single binding model was fitted to the normalized integrated binding isotherms.

ErLnb136 = target: T6, ErLnb136 (Eubacterium ramulus, UniProt U2PDT9); assay: X-ray crystal structure; format: binding; settings: SeMet-labelled protein, 1.4 Å; 25 mM LNB in cryoprotectant; active site
T6 construct: gene HMPREF0373_02965; single chain, domain I AA 7-224 and catalytic domain II AA 242-663; His6 tag, pETM11, E. coli; crystal SeMet-labelled

RiLe^a/bBP [4] = target: T7, RiLe^a/bBP (Roseburia inulinivorans, UniProt A0ACG1Y794); assay: surface plasmon resonance, steady state, one-site fit; format: binding; settings: 20 mM sodium phosphate, 150 mM NaCl, 0.005% P20, pH 6.5, 25 °C; protein immobilised on CM5 chip
T7 construct: gene LK408_15410; signal peptide removed, cleavable His6 tag, pETM11, expressed in E. coli; amine-coupled to CM5 chip

RiFuc29 = target: T8, RiFuc29 (Roseburia inulinivorans, UniProt A0ACG1Y7F2); assay: product profile (TLC and/or MALDI-TOF MS); format: biochemical; settings: 50 mM MES, 150 mM NaCl, 0.005% Triton X-100, pH 6.5, 37 °C, 16 h; alpha-(1->4)-L-fucosyl removed
T8 construct: gene LK408_15425; cleavable His6 tag, pETM11, E. coli; no signal peptide; the GH29 of the GH112/GH136 locus, not that of the GH98 locus

[5] = target: T9, ErLnb136II, C-terminal catalytic beta-helix domain of the GH136 lacto-N-biosidase ErLnb136 from Eubacterium … (Eubacterium ramulus DSM 15684, UniProt U2PDT9 242-663, selenomethionine in the SeMet-labelled crystal (PDB 6KQS)); assay: crystal structure; ErLnb136 (both domains on one chain) with LNB; SeMet-labelled 1.4 Å and native 2.0 Å; sitting-drop vapor diffusion at 20 °C; settings: both partners purified
T9 construct: C-terminal catalytic domain (AA 242-663, beta-helix fold) of ErLnb136, product of HMPREF0373_02965 of Eubacterium ramulus DSM 15684; In the crystal this domain is on ONE natural polypeptide with m3 (whole ErLnb136, cloned in pETM11 with a cleavable N- or C-terminal His6 tag); also called GH136II domain; source: E. coli B834 (DE3), SeMet-labelled, and E. coli BL21 ΔlacZ (DE3)/pRARE2, native
T9 sequence (looked up): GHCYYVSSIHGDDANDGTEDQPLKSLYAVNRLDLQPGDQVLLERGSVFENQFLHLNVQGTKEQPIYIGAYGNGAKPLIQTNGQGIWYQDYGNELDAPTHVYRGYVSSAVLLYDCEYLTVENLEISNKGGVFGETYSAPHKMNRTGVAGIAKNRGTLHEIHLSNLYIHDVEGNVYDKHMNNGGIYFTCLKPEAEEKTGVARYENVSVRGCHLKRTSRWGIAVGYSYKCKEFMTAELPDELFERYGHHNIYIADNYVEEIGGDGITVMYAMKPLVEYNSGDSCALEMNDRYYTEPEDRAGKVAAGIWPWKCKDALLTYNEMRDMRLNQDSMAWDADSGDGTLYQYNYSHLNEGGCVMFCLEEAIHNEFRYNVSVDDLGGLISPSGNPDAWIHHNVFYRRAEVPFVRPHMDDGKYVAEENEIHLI

T4 sequence (A0ACG1Y7L8 entry or part of it): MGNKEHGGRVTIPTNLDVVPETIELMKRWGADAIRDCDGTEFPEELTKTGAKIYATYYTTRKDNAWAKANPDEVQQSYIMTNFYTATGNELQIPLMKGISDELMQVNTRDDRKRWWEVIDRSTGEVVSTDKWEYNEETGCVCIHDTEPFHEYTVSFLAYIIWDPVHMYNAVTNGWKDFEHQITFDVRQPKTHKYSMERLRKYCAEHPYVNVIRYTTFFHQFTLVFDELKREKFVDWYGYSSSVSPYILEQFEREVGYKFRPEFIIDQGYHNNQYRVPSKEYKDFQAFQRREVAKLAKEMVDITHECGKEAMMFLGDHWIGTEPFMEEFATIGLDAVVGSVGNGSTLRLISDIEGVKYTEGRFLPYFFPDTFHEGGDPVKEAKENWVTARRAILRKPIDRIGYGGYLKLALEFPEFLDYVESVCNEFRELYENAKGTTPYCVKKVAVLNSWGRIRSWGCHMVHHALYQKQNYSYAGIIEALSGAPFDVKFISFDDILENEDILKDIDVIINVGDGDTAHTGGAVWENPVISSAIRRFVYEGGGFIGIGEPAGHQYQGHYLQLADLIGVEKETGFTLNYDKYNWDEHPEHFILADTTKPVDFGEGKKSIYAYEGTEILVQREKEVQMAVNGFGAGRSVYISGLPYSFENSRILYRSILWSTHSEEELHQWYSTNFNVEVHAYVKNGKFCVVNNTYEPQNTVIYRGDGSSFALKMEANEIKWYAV
T2 sequence (G2T0V2 entry or part of it): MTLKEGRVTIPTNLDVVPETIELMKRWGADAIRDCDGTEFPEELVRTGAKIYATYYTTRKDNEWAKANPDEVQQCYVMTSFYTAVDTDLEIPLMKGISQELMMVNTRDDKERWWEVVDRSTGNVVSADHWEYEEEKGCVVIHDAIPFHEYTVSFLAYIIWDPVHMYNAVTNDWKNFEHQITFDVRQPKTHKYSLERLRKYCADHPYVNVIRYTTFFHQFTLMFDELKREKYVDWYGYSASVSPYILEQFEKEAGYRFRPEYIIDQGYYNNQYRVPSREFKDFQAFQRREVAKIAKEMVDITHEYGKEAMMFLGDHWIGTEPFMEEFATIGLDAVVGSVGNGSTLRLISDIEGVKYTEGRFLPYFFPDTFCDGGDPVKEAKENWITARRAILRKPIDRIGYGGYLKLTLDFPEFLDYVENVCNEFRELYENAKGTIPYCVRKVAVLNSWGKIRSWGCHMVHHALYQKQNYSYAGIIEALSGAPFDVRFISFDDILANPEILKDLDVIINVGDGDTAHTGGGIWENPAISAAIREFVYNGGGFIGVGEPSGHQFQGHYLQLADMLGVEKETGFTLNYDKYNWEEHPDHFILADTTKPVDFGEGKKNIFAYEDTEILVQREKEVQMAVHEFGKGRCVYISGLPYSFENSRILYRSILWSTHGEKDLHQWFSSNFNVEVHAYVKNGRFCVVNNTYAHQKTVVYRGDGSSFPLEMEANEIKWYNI
T8 sequence (A0ACG1Y7F2 entry or part of it): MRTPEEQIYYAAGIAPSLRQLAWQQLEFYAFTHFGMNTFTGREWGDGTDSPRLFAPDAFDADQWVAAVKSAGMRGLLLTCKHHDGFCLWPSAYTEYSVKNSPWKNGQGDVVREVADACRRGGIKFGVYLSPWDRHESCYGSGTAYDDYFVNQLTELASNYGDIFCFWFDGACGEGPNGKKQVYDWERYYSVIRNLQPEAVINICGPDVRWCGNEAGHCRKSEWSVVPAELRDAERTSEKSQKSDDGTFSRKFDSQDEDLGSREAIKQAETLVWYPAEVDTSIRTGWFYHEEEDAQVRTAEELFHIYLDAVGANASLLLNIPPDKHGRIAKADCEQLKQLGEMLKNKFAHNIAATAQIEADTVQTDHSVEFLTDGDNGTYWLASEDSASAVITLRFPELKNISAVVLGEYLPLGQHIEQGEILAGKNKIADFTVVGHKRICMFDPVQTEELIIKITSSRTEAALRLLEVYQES
T6 sequence (U2PDT9 entry or part of it): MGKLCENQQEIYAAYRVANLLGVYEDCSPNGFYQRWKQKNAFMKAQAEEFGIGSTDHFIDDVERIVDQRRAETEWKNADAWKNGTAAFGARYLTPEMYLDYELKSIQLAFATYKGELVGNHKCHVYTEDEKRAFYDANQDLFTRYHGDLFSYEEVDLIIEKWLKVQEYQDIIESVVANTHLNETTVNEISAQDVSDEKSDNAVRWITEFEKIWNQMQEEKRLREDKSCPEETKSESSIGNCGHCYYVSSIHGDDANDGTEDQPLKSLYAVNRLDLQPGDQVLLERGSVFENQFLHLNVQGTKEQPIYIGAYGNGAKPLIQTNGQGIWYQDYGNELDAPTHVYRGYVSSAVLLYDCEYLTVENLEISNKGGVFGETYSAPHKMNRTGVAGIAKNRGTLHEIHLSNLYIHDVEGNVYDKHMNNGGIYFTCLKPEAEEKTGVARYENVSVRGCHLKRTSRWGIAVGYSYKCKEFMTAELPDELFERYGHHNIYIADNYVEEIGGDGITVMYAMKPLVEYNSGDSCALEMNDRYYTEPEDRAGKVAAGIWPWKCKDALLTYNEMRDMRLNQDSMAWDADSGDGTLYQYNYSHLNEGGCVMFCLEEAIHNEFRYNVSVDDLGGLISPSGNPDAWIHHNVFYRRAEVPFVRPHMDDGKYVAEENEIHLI

| Molecule | KD (RhLNBBP [1]) | phosphorolysis, HPAEC-PAD of Gal1P; specific activity only (RhGLnbp112) | Kd (RiLe^a/bBP [2]) | phosphorolysis, HPAEC-PAD of Gal1P; specific activity only (RiGLnbp112) | Kd (RhLNBBP [3]) | KD (RiLe^a/bBP [4]) | other results |
| --- | --- | --- | --- | --- | --- | --- | --- |
| CC(=O)N[C@H]1C(O)O[C@H](CO)[C@H](O)[C@@H]1O[C@@H]1O[C@H](CO)[C@H](O)[C@H](O)[C@H]1O (stereo partly drawn) [GNB] | shows preference to LNB followed by GNB and LNT | This enzyme has comparable specific activities for LNB and GNB | 10.8 µM and 10.2 µM | (RiGLnbp112) phosphorolyzes LNB and GNB equally efficiently | 10.9 µM and 11.1 µM | – | – |
| CC(=O)N[C@H]1C(O)O[C@H](CO)[C@@H](O)[C@@H]1O[C@@H]1O[C@H](CO)[C@H](O)[C@H](O)[C@H]1O (stereo partly drawn) [LNB] | shows preference to LNB followed by GNB and LNT | This enzyme has comparable specific activities for LNB and GNB | 6.63 µM and 6.91 µM | (RiGLnbp112) phosphorolyzes LNB and GNB equally efficiently | 2.64 µM and 3.12 µM | – | X-ray crystal structure (ErLnb136): The LNB molecule bound in the active site is recognized by ten potential hydrogen bonds |
| CC(=O)N[C@H]1[C@H](O[C@H]2[C@@H](O)[C@@H](CO)O[C@@H](O[C@H]3[C@H](O)[C@@H](O)C(O)O[C@@H]3CO)[C@@H]2O)O[C@H](CO)[C@@H](O)[C@@H]1O[C@@H]1O[C@H](CO)[C@H](O)[C@H](O)[C@H]1O (stereo partly drawn) [LNT] | shows preference to LNB followed by GNB and LNT | – | – | – | 11 µM and 9.71 µM | – | – |
| CC(=O)N[C@H]1C(O)O[C@H](CO)[C@@H](O[C@@H]2O[C@@H](C)C(O)C(O)[C@@H]2O)[C@@H]1O[C@@H]1O[C@H](CO)[C@H](O)[C@H](O)[C@H]1O (stereo partly drawn) [Le^a triose] | – | – | – | – | – | Lewis b (Le^b) tetraose and Lewis a (Le^a) triose were the preferred ligand | product profile (TLC and/or MALDI-TOF MS) (RiFuc29): complete defucosylation of putative products of RiGH136, Le^b tetraose, Le^a triose and H triose |
| CC(=O)N[C@H]1C(O)O[C@H](CO)[C@@H](O[C@@H]2O[C@@H](C)[C@@H](O)[C@@H](O)[C@@H]2O)[C@@H]1O[C@@H]1O[C@H](CO)[C@H](O)[C@H](O)[C@H]1O[C@@H]1O[C@@H](C)[C@@H](O)[C@@H](O)[C@@H]1O (stereo partly drawn) [Le^b tetraose] | – | – | 1.77 µM and 1.75 µM | – | – | Lewis b (Le^b) tetraose and Lewis a (Le^a) triose were the preferred ligand | – |
| ErLnb136I, N-terminal domain of the GH136 lacto-N-biosidase ErLnb136 from Eubacterium ramulus (domain or fragment, Eubacterium ramulus DSM 15684, UniProt U2PDT9 7-224, looked up, selenomethionine in the SeMet-labelled crystal (PDB 6KQS), N-terminal domain (AA 7-224, eight alpha-helices, new fold) of ErLnb136, product of HMPREF0373_02965 of Eubacterium ramulus DSM 15684; residues 180-199 are disordered in the structure; In the crystal this domain is on ONE natural polypeptide with m4 (whole ErLnb136, cloned in pETM11 with a cleavable N- or C-terminal His6 tag); The linker 225-241 is disordered; also called GH136I domain; source: …) NQQEIYAAYRVANLLGVYEDCSPNGFYQRWKQKNAFMKAQAEEFGIGSTDHFIDDVERIVDQRRAETEWKNADAWKNGTAAFGARYLTPEMYLDYELKSIQLAFATYKGELVGNHKCHVYTEDEKRAFYDANQDLFTRYHGDLFSYEEVDLIIEKWLKVQEYQDIIESVVANTHLNETTVNEISAQDVSDEKSDNAVRWITEFEKIWNQMQEEKRLRE | – | – | – | – | – | – | binding result [5]: binds |
